According to patent US9296720B2, “Carboxamide-substituted heteroaryl-pyrazoles and the use thereof” (AiCuris GmbH & Co. KG, priority 2011, dated 2016):
Read-outs that look alike come from different tables or passages of the source.

Assays:
Format in all cases: cell-based
HIV-1NL4-3 Wild Type = assay: Luminescence reduction assay, MT4 cells infected with HIV-1NL4-3 luciferase reporter virus, wild type; conditions: 2% FCS
From the text: (§1) For this assay, HIV-1NL4-3 reporter viruses are used, which carry the luciferase164 gene (lu164) instead of the nef gene. The viruses are generated by transfection of 293T cells with the corresponding proviral pNL4-3 plasmid (Lipofectamine Reagent, Invitrogen, Karlsruhe, Germany). Starting from the proviral plasmid-DNA, viruses with defined resistance mutations in the reverse transcriptase gene are produced with the “QuikChange II XL Site-Directed Mutagenesis Kit” (Stratagene, Cedar Creek, Tex., USA). Among other things, the following mutations are generated: A98G, A98G-K103N-V108I, A98S, F227C, F227L, G190A, G190S, K101E, K101Q-K103N, K103N, K103N-F227L, K103N-G190A, K103N-G190S, K103N-M230L, K103N-N348I, K103N-P225H, K103N-V108I, K103N-V108I-P225H, K103N-V179F-Y181C, K103N-Y181C, K103N-Y181C-G190A, L100I, L100I-K103N, L100I-K103N-V179I-Y181C, L100I-K103N-Y181C, L234I, N348I, P225H, P236L, V106A, V106A-E138K, V106A-F227C, V106A-F227L, V106I, V106I-Y188L, V106M, V108I, V179F-Y181C, V179I, V179I-Y181C, Y181C, Y181C-G190A, Y181C-M230L, Y181I, Y188L. MT4 cells infected with these reporter viruses (NIH AIDS Research and Reference Reagent Program) secrete luciferase into the medium, which makes possible the luminometric quantification of the virus replication.
(§2) For the batch of a 96-well MTP, 3 million MT4 cells are pelletized, suspended in 1 ml of RPMI 1640 medium without phenol red (Invitrogen, Karlsruhe, Germany)/10% FCS/2 mmol of L-glutamine/1% Pen/Strep (Invitrogen, Karlsruhe, Germany), and incubated together with a suitable amount of the corresponding HIV-1NL4-3 reporter virus for 2 hours at 37° C. (pellet infection). Non-adsorbed viruses are then washed out with PBS, the infected cells are pelletized again, and suspended in 8 ml of RPM 11640 medium without phenol red/2% or 10% FCS/2 mmol of L-glutamine/1% Pen/Strep. Therefrom, 80 μl per well is pipetted into a white 96-well MTP in 20 μl of test substance in a suitable dilution. In order to avoid boundary effects, the edge wells of the MTP are not used for substance dilutions. The second vertical row of the MTP contains only infected cells (virus control), and the eleventh vertical row contains only non-infected cells (cell control) in each case in RPMI 1640 medium without phenol red/2% or 10% FCS/2 mmol of L-glutamine/1% Pen/Strep. The other wells of the MTP contain the compounds according to the invention in different concentrations starting from the third vertical row, from which dilution of the test substances is carried out 3^7 times in three steps up to the tenth vertical row. The test substances are dissolved in DMSO, whereby the DMSO final concentration in the test batch is ultimately 1%. The test batches are incubated for 5 days at 37° C./5% CO2, and are luminometrically evaluated after the addition of 15 μl of Lu164-buffer (65 mmol of NaCl, 300 mmol of MES, pH 5.8, 5 mmol of glutathione and 1:200 coelenterazine (5 mg/ml in 30 μM of glutathione/DMSO) (P.J.K. GmbH, Kleinblittersdorf, Germany)). In the virus control, the resulting values are in the range of 1 million RLUs (relative light units), and in the cell control, the resulting values are 300 to 400 RLUs. The EC50 values of the test substances are determined as the concentration of the treated infected cells, in which the virus replication measured in RLUs is 50% of the untreated infected cells.

HIV-1NL4-3 K103N-Y181C = assay: Luminescence reduction assay, MT4 cells infected with HIV-1NL4-3 luciferase reporter virus, RT mutant K103N-Y181C
From the text: as §1, §2

HIV-1LAI Wild Type = assay: AlamarBlue viability assay, HIV-1LAI-infected MT4 cells; conditions: 10% FCS
Protocol: For the batch of a 96-well MTP, 3 million PBLs are pelletized, suspended in 1 ml of RPMI 1640 medium/10% FCS/2 mmol of L-glutamine/1% Pen/Strep, and incubated together with a suitable amount of HIV-1LA1 (NIH AIDS Research & Reference Reagent Program, Germantown, USA) for 2 hours at 37° C. (pellet infection). Non-adsorbed viruses are then washed out with PBS, the infected cells are pelletized again, and suspended in 18 ml of RPMI 1640 medium/10% FCS/2 mmol of L-glutamine/1% Pen/Strep/interleukin-2 (40 U/ml). Therefrom, 180 μl per well is pipetted into a white 96-well MTP in 20 μl of test substance in a suitable dilution. As an alternative, after preparation of the substance dilutions, the HIV is added by pipetting in the MTP together with the cells and is no longer washed out (supernatant infection). In order to avoid boundary effects, the edge wells of the MTP are not used for substance dilutions. The second vertical row of the MTP contains only infected cells (virus control), and the eleventh vertical row contains only non-infected cells (cell control) in each case in RPMI 1640 medium/10% FCS/2 mmol of L-glutamine/1% Pen/Strep/interleukin-2 (40 U/ml). The other wells of the MTP contain the compounds according to the invention in different concentrations starting from the third vertical row, from which dilution of the test substances is carried out 3^7 times in three steps up to the tenth vertical row. The test substances are dissolved in DMSO, whereby the DMSO final concentration in the test batch is ultimately 1%. The test batches are incubated at 37° C./5% CO2. After 5 and 7 days, in each case 50 μl of cell-free supernatant is drawn off from each well in order to determine the amount of p24 contained by means of p24 ELISA (HIV-1 p24^CA Antigen Capture Assay Kit, NCI-Frederick Cancer Research and Development Center, Frederick, USA). From the resulting values of the photometric analysis (450/620 nm), the EC50 values of the test substances are determined as the concentration of the treated infected cells, in which the amount of p24 is 50% of the untreated infected cells.
As an alternative, MT4 cells are used for testing test substances instead of PBLs. HIV-1LA1-infected MT4 cells (MOI 0.01, supernatant infection) are incubated according to the above-described pattern in RPMI 1640 medium with 2% or 10% FCS/2 mmol of L-glutamine/1% Pen/Strep in the presence of test substances for 5 days at 37° C./5% CO2 (20 μl of substance dilution and 80 μl of cells/virus per well). Then, 10 μl of AlamarBlue (Invitrogen, Karlsruhe, Germany) is added to each well, and MTPs are incubated for 3 hours at 37° C., before the fluorimetric analysis is done (544/590 nm). The resulting values are approximately 30,000 in the case of untreated, non-infected cells, and approximately 6,000 in the case of untreated infected cells. In the low concentration range, the EC50 values of the test substances are determined as the concentration of the treated infected cells, in which the fluorescence is 50% of the untreated non-infected cells (in each case relative to the values of the untreated infected cells). In addition, in the high concentration range, the CC50 values of the test substances are determined as the concentration of the treated infected cells, in which the fluorescence is 50% of the untreated, non-infected cells (in each case relative to the values of the untreated infected cells).

[1] = Human immunodeficiency virus 1, MT4, MT4 cells
[2] = Human immunodeficiency virus 1, MT4, read-out: EC50 (μM) MT4 Cells HIV-1NL4-3 K103N-Y181C 2% FCS, MT4 cells, HIV-1NL4-3 K103N-Y181C, 2% FCS

SMILES	EC50 (HIV-1NL4-3 Wild Type; [1]) [µM]	EC50 (HIV-1NL4-3 K103N-Y181C; [2]) [µM]	EC50 (HIV-1LAI Wild Type; [1]) [µM]	EC50 (HIV-1NL4-3 Wild Type; MT4 cells) [µM]	EC50 (HIV-1NL4-3 K103N-Y181C; read-out: EC50 (μM) MT4 Cells HIV-1NL4-3 K103N-Y181C 2% FCS, MT4 cells, HIV-1NL4-3 K103N-Y181C, 2% FCS) [µM]	EC50 (HIV-1LAI Wild Type; MT4 cells) [µM]
O=C(c1cc(-c2cc(F)cc(Cl)c2)n(-c2ccnc(C(F)(F)F)c2)n1)N1CC[S+]([O-])C1 (stereo not drawn) [Example 19, {5-(3-Chloro-5-fluorophenyl)-1-[2-(trifluoromethyl)pyridin-4-yl]-1H-pyrazol-3-yl}(1-oxido-1,3-thiazolidin-3-yl)methanone]	0.152	> 3.3	2.5			
O=C(c1cc(-c2cc(Cl)cc(OC(F)(F)F)c2)n(-c2cccnc2)n1)N1CCS(=O)(=O)C1 [Example 79, {5-[3-Chloro-5-(trifluoromethoxy)phenyl]-1-(pyridin-3-yl)-1H-pyrazol-3-yl}(1,1-dioxido-1,3-thiazolidin-3-yl)methanone]	0.038	0.125	0.244			
O=C1CN(C(=O)c2cc(-c3cc(Cl)cc(OC(F)(F)F)c3)n(-c3cccnc3)n2)CN1 [Example 76, 1-({5-[3-Chloro-5-(trifluoromethoxy)phenyl]-1-(pyridin-3-yl)-1H-pyrazol-3-yl}carbonyl)imidazolidin-4-one]	0.014	0.019	0.207			
O=C1CN(C(=O)c2cc(-c3cc(Br)cc(OC(F)(F)F)c3)n(-c3ccccn3)n2)CN1 [Example 26, 1-({5-[3-Bromo-5-(trifluoromethoxy)phenyl]-1-(pyridin-2-yl)-1H-pyrazol-3-yl}carbonyl)imidazolidin-4-one]	0.12	0.071	> 3.3			
O=C1CN(C(=O)c2cc(-c3cncc(Cl)c3)n(-c3ccc(F)c(Cl)c3)n2)CCN1 [Example 101, 4-{[1-(3-Chloro-4-fluorophenyl)-5-(5-chloropyridin-3-yl)-1H-pyrazol-3-yl]carbonyl}piperazin-2-one]	0.016	0.088	0.034			
O=C(c1cc(-c2cc(Cl)cc(OC(F)F)c2)n(-c2cccnc2)n1)N1CCSC1 [Example 82, {5-[3-Chloro-5-(difluoromethoxy)phenyl]-1-(pyridin-3-yl)-1H-pyrazol-3-yl}(1,3-thiazolidin-3-yl)methanone]	0.016	0.307	0.348			
O=C(c1cc(-c2cc(Br)cc(OC(F)(F)F)c2)n(-c2cccnc2)n1)N1CC[S+]([O-])C1 (racemic) [Example 31, {5-[3-Bromo-5-(trifluoromethoxy)phenyl]-1-(pyridin-3-yl)-1H-pyrazol-3-yl}(1-oxido-1,3-thiazolidin-3-yl)methanone]				0.017	0.045	0.18
O=C1CN(C(=O)c2cc(-c3cncc(C(F)(F)F)c3)n(-c3cccc(Cl)c3)n2)CCN1 [Example 109, 4-({1-(3-Chlorophenyl)-5-[5-(trifluoromethyl)pyridin-3-yl]-1H-pyrazol-3-yl}carbonyl)piperazin-2-one]	0.232	0.768	0.246			
O=C1CN(C(=O)c2cc(-c3ccnc(Cl)c3)n(-c3cccc(Cl)c3)n2)CN1 [Example 114, 1-{[1-(3-Chlorophenyl)-5-(2-chloropyridin-4-yl)-1H-pyrazol-3-yl]carbonyl}imidazolidin-4-one]	0.007	0.171	0.063			
O=C(c1cc(-c2cc(F)cc(OC(F)(F)F)c2)n(-c2ccnc(Cl)c2)n1)N1CCSC1 [Example 104, {1-(2-Chloropyridin-4-yl)-5-[3-fluoro-5-(trifluoromethoxy)phenyl]-1H-pyrazol-3-yl}(1,3-thiazolidin-3-yl)methanone]	0.58	≥ 3.3	> 3.3			
O=C1CN(C(=O)c2cc(-c3cc(Br)cc(OC(F)(F)F)c3)n(-c3ccc(F)nc3)n2)CN1 [Example 39, 1-({5-[3-Bromo-5-(trifluoromethoxy)phenyl]-1-(6-fluoropyridin-3-yl)-1H-pyrazol-3-yl}carbonyl)imidazolidin-4-one]	0.009	0.007	0.062			
O=C1CN(C(=O)c2cc(-c3cncc(C(F)(F)F)c3)n(-c3cccc(Cl)c3)n2)CN1 [Example 108, 1-({1-(3-Chlorophenyl)-5-[5-(trifluoromethyl)pyridin-3-yl]-1H-pyrazol-3-yl}carbonyl)imidazolidin-4-one]	0.052	0.093	0.036			
O=C(c1cc(-c2cc(Br)cc(OC(F)(F)F)c2)n(-c2ccc(Cl)nc2)n1)N1CC[S+]([O-])C1 (racemic) [Example 37, {5-[3-Bromo-5-(trifluoromethoxy)phenyl]-1-(6-chloropyridin-3-yl)-1H-pyrazol-3-yl}(1-oxido-1,3-thiazolidin-3-yl)methanone]	0.004	0.005	2.32			
